Data as given in PubChem BioAssay AID184 (DTP/NCI, 2004).
Values joined by “and” are separate entries in the source; they are usually repeats but may differ in a detail not shown here. Equal entries are not always repeated. Inconclusive results and toxic doses are left out.

Test system: BALB/cJ mice, ADJ-PC-6 ip tumor, median survival T/C
Test: NCI In Vivo Anticancer Drug Screen. Data for tumor model ADJ-PC-6 (intraperitoneal) in BALB/cJ mice
Details: endpoint: median survival time, higher = longer survival
Procedure: The antitumor activity of compounds was measured in mice bearing transplantable tumors. Survival or tumor size were measured and the results are expressed as the measurement made in the treated group (T) divided by the measurement made in the vehicle treated control group (C). The tumor model used in this assay is ADJ-PC-6 (intraperitoneal) in BALB/cJ mice

[1] = dose: 10.0 mg/kg/injection, schedule: Q04DX003 (ip), vehicle: saline
[2] = dose: 7.5 mg/kg/injection, schedule: Q04DX003 (ip), vehicle: saline
[3] = dose: 15.0 mg/kg/injection, schedule: Q04DX003 (ip), vehicle: saline
[4] = dose: 30.0 mg/kg/injection, schedule: Q04DX003 (ip), vehicle: saline
[5] = dose: 60.0 mg/kg/injection, schedule: Q04DX003 (ip), vehicle: saline
[6] = dose: 2.0 mg/kg/injection, schedule: Q04DX003 (ip), vehicle: saline

## O=P1(N(CCCl)CCCl)NCCCO1 (centres undefined)
[1]
  T/C: 99 % of control
dose: 10.0 mg/kg/injection, schedule: Q04DX003 (iv), vehicle: saline
  T/C: 88 % of control
dose: 19.4 mg/kg/injection, schedule: Q04DX003 (ip), vehicle: saline
  T/C: 108 % of control
dose: 20.0 mg/kg/injection, schedule: Q04DX003 (ip), vehicle: saline
  T/C: 109 % of control and 110 % of control
dose: 20.0 mg/kg/injection, schedule: Q04DX003 (iv), vehicle: saline
  T/C: 95 % of control
dose: 32.4 mg/kg/injection, schedule: Q04DX003 (ip), vehicle: saline
  T/C: 166 % of control
dose: 40.0 mg/kg/injection, schedule: Q04DX003 (ip), vehicle: saline
  T/C: 173 % of control and 178 % of control
dose: 54.0 mg/kg/injection, schedule: Q04DX003 (ip), vehicle: saline
  T/C: 189 % of control
dose: 80.0 mg/kg/injection, schedule: Q04DX003 (ip), vehicle: saline
  T/C: 168 % of control and 335 % of control
dose: 80.0 mg/kg/injection, schedule: Q04DX003 (iv), vehicle: saline
  T/C: 194 % of control
dose: 90.0 mg/kg/injection, schedule: Q04DX003 (ip), vehicle: saline
  T/C: 267 % of control
dose: 150.0 mg/kg/injection, schedule: Q04DX003 (ip), vehicle: saline
  T/C: 340 % of control
dose: 160.0 mg/kg/injection, schedule: Q04DX003 (ip), vehicle: saline
  T/C: 194 % of control and 335 % of control
dose: 160.0 mg/kg/injection, schedule: Q04DX003 (iv), vehicle: saline
  T/C: 194 % of control

## CCN(CC)CCOC(=O)c1ccc(NCN2C(=O)CCC2=O)cc1
dose: 10.0 mg/kg/injection, schedule: Q01DX009 (ip), vehicle: water
  T/C: 110 % of control
dose: 20.0 mg/kg/injection, schedule: Q01DX009 (ip), vehicle: water
  T/C: 96 % of control
dose: 40.0 mg/kg/injection, schedule: Q01DX009 (ip), vehicle: water
  T/C: 98 % of control
dose: 80.0 mg/kg/injection, schedule: Q01DX009 (ip), vehicle: water
  T/C: 105 % of control
dose: 160.0 mg/kg/injection, schedule: Q01DX009 (ip), vehicle: water
  T/C: 92 % of control

## CO[C@H]1C[C@](C)(O)Cc2cc3c(c(O)c21)C(=O)c1c(O)cc2c(c1C3=O)O[C@@H]1O[C@@]2(C)[C@H](O)[C@@H](N(C)C)[C@@H]1O
[2]
  T/C: 188 % of control
dose: 12.5 mg/kg/injection, schedule: Q04DX003 (ip), vehicle: saline
  T/C: 189 % of control
[3]
  T/C: 319 % of control
dose: 25.0 mg/kg/injection, schedule: Q04DX003 (ip), vehicle: saline
  T/C: 252 % of control
[4]
  T/C: 267 % of control
[5]
  T/C: 471 % of control

## CC(=O)O[C@H]1C(=O)[C@@]2(C)[C@H]([C@H](OC(=O)c3ccccc3)[C@]3(O)C[C@H](OC(=O)[C@H](O)[C@@H](NC(=O)c4ccccc4)c4ccccc4)C(C)=C1C3(C)C)[C@]1(OC(C)=O)CO[C@@H]1C[C@@H]2O
dose: 0.75 mg/kg/injection, schedule: Q01DX009 (ip), vehicle: Klucel (hydroxypropylcellulose) (HPC)
  T/C: 102 % of control
dose: 1.56 mg/kg/injection, schedule: Q01DX009 (ip), vehicle: Klucel (hydroxypropylcellulose) (HPC)
  T/C: 118 % of control
dose: 3.0 mg/kg/injection, schedule: Q01DX009 (ip), vehicle: Klucel (hydroxypropylcellulose) (HPC)
  T/C: 112 % of control
dose: 3.12 mg/kg/injection, schedule: Q01DX009 (ip), vehicle: Klucel (hydroxypropylcellulose) (HPC)
  T/C: 112 % of control
dose: 6.0 mg/kg/injection, schedule: Q01DX009 (ip), vehicle: Klucel (hydroxypropylcellulose) (HPC)
  T/C: 121 % of control
dose: 12.0 mg/kg/injection, schedule: Q01DX009 (ip), vehicle: Klucel (hydroxypropylcellulose) (HPC)
  T/C: 124 % of control

## COc1cccc2c1C(=O)c1c(O)c3c(c(O)c1C2=O)C[C@@](O)(C(C)=O)C[C@@H]3OC1CC(N)C(O)C(C)O1 (some centres undefined)
dose: 0.38 mg/kg/injection, schedule: Q04DX003 (ip), vehicle: saline
  T/C: 101 % of control
dose: 1.5 mg/kg/injection, schedule: Q04DX003 (ip), vehicle: saline
  T/C: 174 % of control
[6]
  T/C: 177 % of control
dose: 3.0 mg/kg/injection, schedule: Q04DX003 (ip), vehicle: saline
  T/C: 117 % of control

## C(=N/NC1=NCCN1)/c1c2ccccc2c(/C=N\NC2=NCCN2)c2ccccc12
dose: 3.75 mg/kg/injection, schedule: Q04DX003 (ip), vehicle: saline
  T/C: 253 % of control
dose: 3.75 mg/kg/injection, schedule: Q04DX003 (ip), vehicle: water
  T/C: 235 % of control
[2]
  T/C: 204 % of control
dose: 7.5 mg/kg/injection, schedule: Q04DX003 (ip), vehicle: water
  T/C: 235 % of control
[3]
  T/C: 253 % of control
dose: 15.0 mg/kg/injection, schedule: Q04DX003 (ip), vehicle: water
  T/C: 235 % of control
[4]
  T/C: 225 % of control
dose: 30.0 mg/kg/injection, schedule: Q04DX003 (ip), vehicle: water
  T/C: 235 % of control
[5]
  T/C: 267 % of control

## COc1cc2c(c(OC)c1OC)-c1ccc(OC)c(=O)cc1[C@@H](NC(C)=O)CC2
dose: 0.05 mg/kg/injection, schedule: Q01DX009 (ip), vehicle: Klucel (hydroxypropylcellulose) (HPC)
  T/C: 99 % of control
dose: 0.1 mg/kg/injection, schedule: Q01DX009 (ip), vehicle: Klucel (hydroxypropylcellulose) (HPC)
  T/C: 88 % of control
dose: 0.2 mg/kg/injection, schedule: Q01DX009 (ip), vehicle: Klucel (hydroxypropylcellulose) (HPC)
  T/C: 102 % of control
dose: 0.4 mg/kg/injection, schedule: Q01DX009 (ip), vehicle: Klucel (hydroxypropylcellulose) (HPC)
  T/C: 108 % of control

## CC1=C(C)C(=O)O[C@@H]([C@](C)(O)[C@]2(O)CC[C@@]3(O)[C@@H]4C[C@H]5O[C@]56[C@@H](O)C=CC(=O)[C@]6(C)[C@H]4CC[C@]23C)C1
dose: 1.0 mg/kg/injection, schedule: Q01DX009 (ip), vehicle: saline + alcohol
  T/C: 111 % of control
dose: 1.0 mg/kg/injection, schedule: Q01DX009 (ip), vehicle: saline with Tween-80
  T/C: 104 % of control
dose: 2.0 mg/kg/injection, schedule: Q01DX009 (ip), vehicle: saline + alcohol
  T/C: 96 % of control
dose: 2.0 mg/kg/injection, schedule: Q01DX009 (ip), vehicle: saline with Tween-80
  T/C: 107 % of control
dose: 4.0 mg/kg/injection, schedule: Q01DX009 (ip), vehicle: saline + alcohol
  T/C: 98 % of control
dose: 4.0 mg/kg/injection, schedule: Q01DX009 (ip), vehicle: saline with Tween-80
  T/C: 97 % of control
dose: 8.0 mg/kg/injection, schedule: Q01DX009 (ip), vehicle: saline + alcohol
  T/C: 114 % of control
dose: 8.0 mg/kg/injection, schedule: Q01DX009 (ip), vehicle: saline with Tween-80
  T/C: 106 % of control

## N[C@@H](Cc1ccc(N(CCCl)CCCl)cc1)C(=O)O
[6]
  T/C: 177 % of control
dose: 2.5 mg/kg/injection, schedule: Q04DX003 (ip), vehicle: saline
  T/C: 203 % of control
dose: 4.0 mg/kg/injection, schedule: Q04DX003 (ip), vehicle: saline
  T/C: 236 % of control
dose: 5.0 mg/kg/injection, schedule: Q04DX003 (ip), vehicle: saline
  T/C: 240 % of control
dose: 8.0 mg/kg/injection, schedule: Q04DX003 (ip), vehicle: saline
  T/C: 230 % of control
[1]
  T/C: 335 % of control
dose: 16.0 mg/kg/injection, schedule: Q04DX003 (ip), vehicle: saline
  T/C: 307 % of control

## NC(C/[N+]([O-])=N/O)C(=O)O (centres undefined)
dose: 50.0 mg/kg/injection, schedule: Q04DX003 (ip), vehicle: alkali diluted with saline
  T/C: 108 % of control
dose: 100.0 mg/kg/injection, schedule: Q04DX003 (ip), vehicle: alkali diluted with saline
  T/C: 115 % of control
dose: 250.0 mg/kg/injection, schedule: Q04DX003 (ip), vehicle: alkali diluted with saline
  T/C: 153 % of control
dose: 400.0 mg/kg/injection, schedule: Q04DX003 (ip), vehicle: alkali diluted with saline
  T/C: 171 % of control
dose: 500.0 mg/kg/injection, schedule: Q04DX003 (ip), vehicle: alkali diluted with saline
  T/C: 188 % of control
dose: 800.0 mg/kg/injection, schedule: Q04DX003 (ip), vehicle: alkali diluted with saline
  T/C: 167 % of control
